Activity calls are given as the source filed them. The calls are words filed in the database; no cut-off is given here.
Assays:
[1] = tested on: PC-12; assay: Neuroprotective activity against NMDA-induced excitotoxicity in rat PC-12 cells assessed as increase in cell viability at 15 uM pretreated for 24 hr followed by NMDA addition and measured after 6 hrs by MTT assay; assay type: functional; conditions: time 30 hrs
[2] = tested on: PC-12; assay: Neuroprotective activity against NMDA-induced excitotoxicity in rat PC-12 cells assessed as increase in cell viability pretreated for 24 hr followed by NMDA addition and measured after 6 hrs by MTT assay; assay type: functional, cell-based; conditions: dose 2.5-20 µM, time 30.0 hrs, DDE = dose-dependent effect
[3] = tested on: PC-12; assay: Neuroprotective activity against NMDA-induced excitotoxicity in rat PC-12 cells assessed as increase in cell viability at 5 uM pretreated for 24 hr followed by NMDA addition and measured after 6 hrs by MTT assay; assay type: functional, cell-based; conditions: time 30.0 hrs
[4] = tested on: PC-12; assay: Neuroprotective effect against NMDA-induced rat PC-12 cells assessed as prevention of morphological changes at 15 uM; assay type: functional, cell-based
[5] = tested on: PC-12; assay: Inhibition of NMDA-induced Ca2+ influx in rat PC-12 cells assessed as reduction in intracellular Ca2+ concentration at 15 uM pretreated for 24 hr followed by NMDA addition and measured after 6 hrs by Fluo2-AM staining based fluorescence microscopic method; assay type: functional, cell-based; conditions: time 30.0 hrs
[6] = tested on: PC-12; assay: Neuroprotective activity against NMDA-induced excitotoxicity in rat PC-12 cells assessed as increase in cell viability at 20 uM pretreated for 24 hr followed by NMDA addition and measured after 6 hrs by MTT assay; assay type: functional

SMILES: O=C1C[C@@H](c2cccc(OCc3ccccc3)c2)[C@H]2Cc3c(F)cccc3N12 (racemic)
- Activity [1]: 96.16%
- Activity [2]: Dde
- Activity [3]: Active
- Activity [4]: Active
- inhibition [5]: Active
- Activity ([6]; time 30 hrs): 94.59%

SMILES: COc1c(OCc2ccccc2)cccc1[C@@H]1CC(=O)N2c3ccccc3C[C@H]12 (racemic)
- Activity ([6]; time 30.0 hrs): Active

SMILES: COc1cc(OC)cc([C@@H]2CC(=O)N3c4ccccc4C[C@H]23)c1 (racemic)
- Activity ([6]; time 30.0 hrs): Active

SMILES: COc1ccc([C@@H]2CC(=O)N3c4ccccc4C[C@H]23)cc1 (racemic)
- Activity ([6]; time 30.0 hrs): Active

SMILES: COc1ccccc1[C@@H]1CC(=O)N2c3ccccc3C[C@H]12 (racemic)
- Activity ([6]; time 30.0 hrs): Active

SMILES: O=C1C[C@@H](c2cccc(OCc3ccccc3)c2)[C@H]2Cc3cc(OCc4ccccc4)ccc3N12 (racemic)
- Activity ([6]; time 30.0 hrs): Active

SMILES: O=C1C[C@@H](c2cccc(OCc3ccccc3)c2)[C@H]2Cc3ccccc3N12 (racemic)
- Activity ([6]; time 30.0 hrs): Active

SMILES: O=C1C[C@@H](c2ccccc2)[C@H]2Cc3ccccc3N12 (racemic)
- Activity ([6]; time 30.0 hrs): Active

SMILES: O=C1C[C@H](c2cccc(OCc3ccccc3)c2)[C@H]2Cc3c(F)cccc3N12 (racemic)
- Activity ([6]; time 30.0 hrs): Active

SMILES: O=C1C[C@H](c2cccc(OCc3ccccc3)c2)[C@H]2Cc3ccccc3N12 (racemic)
- Activity ([6]; time 30.0 hrs): Active

SMILES: C[C@]12N[C@H](Cc3ccccc31)c1ccccc12.O=C(O)/C=C\C(=O)O [DIZOCILPINE MALEATE]
- Activity [1]: 96.96%
- Activity [2]: Dde
- Activity [3]: Active
- Activity [4]: Active
- inhibition [5]: Active
- Activity ([6]; time 30 hrs): 95.48%

Source: ChEMBL document CHEMBL5120765, “Synthesis of novel 1-phenyl-benzopyrrolizidin-3-one derivatives and evaluation of their cytoneuroprotective effects against NMDA-induced injury in PC12 cells” (Bioorg Med Chem, 2022)
